Measurements published in patent US11260003B2, “Antimicrobial composition and cosmetic containing antimicrobial composition” (ADEKA CORPORATION, priority 2017, dated 2022).

How the values were obtained:
Assay type in all cases: cell-based
[1] = test system: Escherichia coli (bacteria) ATCC 8739; test: minimum inhibitory concentration (MIC), microplate turbidity test; conditions: mass % of component (A) (A-4 or A-5); 48 hours at 33° C.; component (B)/(C) at 5%
Method: (§1) E. coli: Escherichia coli (bacteria) ATCC 8739 Test solutions containing these microorganisms were prepared by preculture on SCD liquid medium followed by adjusting the microorganism concentration in the liquids to the level of 10^6 to 10^7 cfu/mL using a 0.9% aqueous NaCl solution. 20 μL of each test solution was dispensed onto a microplate; 180 μL of each antimicrobial composition—prepared by the dilution with medium of component (B) and component (C) at the prescribed concentrations and component (A) at various concentrations—was added; and stirring was carried out to provide a mixed solution (the test sample). Component (A), component (B), and component (C) were prepared here so as to provide the prescribed concentrations in mass % in the mixed solutions. Each mixed solution was then cultured for 48 hours in a thermostat at 33° C., after which the turbidity of each mixed solution was observed. […]

[2] = test system: Pseudomonas aeruginosa (bacteria) ATCC 9027; test: as above; conditions: mass % of component (A) (A-4 or A-5); 48 hours at 33° C.; component (B)/(C) at 5%
Method: as §1, with “P. aer: Pseudomonas aeruginosa” for “E. coli: Escherichia coli”, “9027” for “8739”

[3] = test system: Escherichia coli ATCC 8739, Pseudomonas aeruginosa ATCC 9027, Staphylococcus aureus ATCC 6538, Candida albicans ATCC 10231, Aspergillus brasiliensis ATCC 16404; test: five-species minimum inhibitory concentration (five-species MIC), microplate turbidity test
Method: Test solutions containing these microorganisms were prepared as follows: the bacteria were precultured on SCD (soybean casein digest) liquid medium and the yeast and fungus were precultured on glucose agar medium; this was followed in each case by adjustment of the microorganism concentration in the liquids to the level of 10^6 to 10^7 cfu/mL using 0.9% aqueous NaCl solution.
20 μL of each test solution was dispensed onto a microplate; 180 μL of each antimicrobial composition—prepared by the dilution with medium of component (B) and component (C) at the prescribed concentrations given in Table 1 and component (A) at various concentrations was added; and stirring was carried out to provide a mixed solution (the test sample). Component (A), component (B), and component (C) were prepared here so as to provide the prescribed concentrations in mass % in the mixed solutions. Each mixed solution was then cultured as follows: 48 hours in a thermostat at 33° C. for the bacterial mixed solutions; 3 days at 25° C. for the yeast mixed solutions; and 1 week at 25° C. for the fungus mixed solutions. The post-culture turbidity of each mixed solution was observed. For each microorganism, the mixed solutions containing component (A) at the various concentrations, and each blending condition for component (B) or component (C) (each of the mixed solutions), those mixed solutions were identified where turbidity or the presence of colonies/filaments was not seen (i.e., mixed solutions where growth of the test microorganism had been stopped). For each of the five microorganisms, the lowest component (A) concentration in the mixed solutions where growth had been stopped was designated the minimum inhibitory concentration. […] In addition, the antimicrobial activity (enhancement effect) was evaluated also using the numerical MIC values given in those instances where a “+” or “−” is provided.

| Compound | MIC (%) E. coli [1] [%] | MIC (%) P. aer [2] [%] | other results |
| --- | --- | --- | --- |
| CCCCCCC(O)CO (stereo not shown) [Comp. Ex. 10, 1,2-octanediol] | 0.13 | 0.38 | – |
| CCCCCCCCOCC(O)CO (stereo not shown) [Comp. Ex. 5, octyl glyceryl ether] | – | – | five-species MIC (%) ([3]; Table 2, mass % of component (A) A-2 at which growth of all five microorganisms stopped, component (B)/(C) at prescribed %): 0.50+ % |
| CCCCC(CC)COCC(O)CO (stereo not shown) [Comp. Ex. 1, 2-ethylhexyl glyceryl ether] | – | – | five-species MIC (%) ([3]; Table 1, mass % of component (A) A-1 at which growth of all five microorganisms stopped, component (B)/(C) at prescribed %): 1.00+ % |
| CCCCCCOCC(O)CO (stereo not shown) [compound 14, hexyl glyceryl ether] | 0.25 | 0.75 | – |
| OCC(O)COC1CCCCC1 (stereo not shown) [Comp. Ex. 9, cyclohexyl glyceryl ether] | – | – | five-species MIC (%) ([3]; Table 3, mass % of component (A) A-3 at which growth of all five microorganisms stopped, component (B) at prescribed %): 3.00% |
